Here are results for 55 compounds from patent US9464071B2 (priority 2010, dated 2016).

Several values for one entry are separate records, joined by “and”; a condition that tells them apart may be missing. Identical values can stand only once.

For orientation: melting point means the temperature, or range, at which the solid turns liquid.

Turning to `COc1cc(OC)cc(N(CC(O)C(F)(F)F)c2ccc3ncc(-c4cnn(C)c4)nc3c2)c1` (single isomer, unassigned) [Compound 148, (2R*)-3-{(3,5-Dimethoxyphenyl)[3-(1-methyl-1H-pyrazol-4-yl)quinoxalin-6-yl]amino}-1,1,1-trifluoropropan-2-ol], the melting point was 149.13 °C. The figure for `COc1cc(OC)cc(N(CC(O)C(F)(F)F)c2ccc3ncc(-c4cnn(C)c4)nc3c2)c1` (single isomer, unassigned) [Compound 149, (2S*)-3-{(3,5-Dimethoxyphenyl)[3-(1-methyl-1H-pyrazol-4-yl)quinoxalin-6-yl]amino}-1,1,1-trifluoropropan-2-ol] is 146.61 °C; for `COc1cc(OC)cc(N(C[C@H](O)C(F)(F)F)c2ccc3ncc(-c4cnn(CCCN)c4)nc3c2)c1` (stereo in doubt) it is 154 °C; for `COc1cc(OC)cc(N(CCO)c2ccc3ncc(-c4cn[nH]c4)nc3c2)c1` [Compound 2] it is 169.26 °C and 169 °C. As for `CNC(=O)Cn1cc(-c2cnc3ccc(N(CCO)c4cc(OC)cc(OC)c4)cc3n2)cn1` [Compound 21], the figure is 204.45 °C and 204.5 °C; as for `CC(C)Oc1cccc(N(CC2CC2)c2ccc3ncc(-c4cnn(C)c4)nc3c2)c1` [Compound 22], 109 °C and 108.61 °C. The figure for `COc1cc(OC)cc(N(Cc2cc(C)no2)c2ccc3ncc(-c4cnn(CCO)c4)nc3c2)c1` [Compound 23] is 134 °C; for `COc1cc(OCCO)cc(N(CC2CC2)c2ccc3ncc(-c4cnn(C)c4)nc3c2)c1` [Compound 24] it is 80 °C; for `COc1cc(OCCN)cc(N(CC2CC2)c2ccc3ncc(-c4cnn(C)c4)nc3c2)c1` [Compound 32] it is 80 °C. With `CNC(=O)Cn1cc(-c2cnc3ccc(N(CCN)c4cc(OC)cc(OC)c4)cc3n2)cn1` [Compound 34], the melting point was 174 °C and 173.67 °C. As for `COc1cc(OC)cc(N(CC2CC2)c2ccc3ncc(-c4cnn(CC(O)CO)c4)nc3c2)c1` (stereo not shown) [Compound 37], the figure is 154.05 °C and 154 °C; as for `C#CCN(c1cc(OC)cc(OC)c1)c1ccc2ncc(-c3cnn(C)c3)nc2c1` [Compound 38], 168 °C; as for `COc1cc(OC)cc(N(CCN2C[C@H](C)C[C@H](C)C2)c2ccc3ncc(-c4cnn(C)c4)nc3c2)c1` [Compound 39], 80 °C. Regarding `COc1cc(OC)cc(N(CCCNS(C)(=O)=O)c2ccc3ncc(-c4cnn(C)c4)nc3c2)c1` [Compound 48], the melting point was 189 °C and 189.27 °C. As for `c1ccc(N(CC2CC2)c2ccc3ncc(-c4cn[nH]c4)nc3c2)cc1` [Compound 54], the figure is 138 °C. The figure for `COc1cc(OC)cc(N(CC2CC2)c2ccc3ncc(-c4cnn(S(=O)(=O)N(C)C)c4)nc3c2)c1` [Compound 58] is 163 °C and 165 °C; for `COc1cc(OC)cc(N(CC(O)CO)c2ccc3ncc(-c4cnn(C)c4)nc3c2)c1` (stereo not shown) [Compound 75] it is 186 °C and 186.76 °C and 187 °C; for `COc1cc(OC)cc(N(CC(C)(C)O)c2ccc3ncc(-c4cnn(C)c4)nc3c2)c1` [Compound 78] it is 162 °C and 162.1 °C. The figure for `COc1cc(OC)cc(N(C/C(C)=N/O)c2ccc3ncc(-c4cnn(C)c4)nc3c2)c1` [Compound 80] is 144 °C; for `COc1cc(OC)cc(N(C/C(C)=N\O)c2ccc3ncc(-c4cnn(C)c4)nc3c2)c1` [Compound 81] it is 199 °C. As for `COc1cc(OC)cc(N(C[C@@H]2C[C@H]2CO)c2ccc3ncc(-c4cnn(C)c4)nc3c2)c1` [Compound 89], the melting point was 126.66 °C and 126 °C. As to `COc1cc(OC)cc(N(CCCN)c2ccc3ncc(-c4cnn(C)c4)nc3c2)c1` [Compound 93, N-(3,5-Dimethoxyphenyl)-N-[3-(1-methyl-1H-pyrazol-4-yl)quinoxalin-6-yl]propane-1,3-diamine], the melting point is 175.51 °C and 178 °C. The figure for `COc1cc(OC)cc(N(Cc2nccn2C)c2ccc3ncc(-c4cnn(C)c4)nc3c2)c1` [Compound 101] is 186 °C; for `COc1cc(OC)cc(N(CCC#N)c2ccc3ncc(-c4cnn(C)c4)nc3c2)c1` [Compound 122] it is 202.94 °C; for `COc1cc(OC)cc(N(CC(O)CN)c2ccc3ncc(-c4cnn(C)c4)nc3c2)c1` (stereo not shown) [Compound 125] it is 99 °C and 99.31 °C. The figure for `COc1cc(OC)cc(N(CCCN2CCCC2=O)c2ccc3ncc(-c4cnn(C)c4)nc3c2)c1` [Compound 132, 1-(3-{(3,5-Dimethoxyphenyl)[3-(1-methyl-1H-pyrazol-4-yl)quinoxalin-6-yl]amino}propyl)pyrrolidin-2-one] is 132.47 °C. For `COc1cc(OC)cc(N(CCN2CC[C@H](C#N)C2)c2ccc3ncc(-c4cnn(C)c4)nc3c2)c1` [Compound 133, (3S)-1-(2-{(3,5-Dimethoxyphenyl)[3-(1-methyl-1H-pyrazol-4-yl)quinoxalin-6-yl]amino}ethyl)pyrrolidine-3-carbonitrile], the melting point was 126.47 °C. As for `COc1cc(OC)cc(N(CCNCCC#N)c2ccc3ncc(-c4cnn(C)c4)nc3c2)c1` [Compound 140, 3-[(2-{(3,5-Dimethoxyphenyl)[3-(1-methyl-1H-pyrazol-4-yl)quinoxalin-6-yl]amino}ethyl)amino]propanenitrile], the figure is 123.19 °C; as for `COc1cc(OC)cc(N(CCC(C)(C)O)c2ccc3ncc(-c4cnn(C)c4)nc3c2)c1` [Compound 141, 4-{(3,5-Dimethoxyphenyl)[3-(1-methyl-1H-pyrazol-4-yl)quinoxalin-6-yl]amino}-2-methylbutan-2-ol], 150 °C; as for `COc1cc(OC)cc(N(CCN2CCN(C(C)=O)CC2)c2ccc3ncc(-c4cnn(C)c4)nc3c2)c1` [Compound 143, N-[2-(4-Acetylpiperazin-1-yl)ethyl]-N-(3,5-dimethoxyphenyl)-3-(1-methyl-1H-pyrazol-4-yl)quinoxalin-6-amine], 184.72 °C. The compound `COc1cc(OC)cc(N(Cc2cnccn2)c2ccc3ncc(-c4cnn(C)c4)nc3c2)c1` [Compound 146, N-(3,5-Dimethoxyphenyl)-3-(1-methyl-1H-pyrazol-4-yl)-N-(pyrazin-2-ylmethyl)quinoxalin-6-amine] yielded a melting point of 163 °C.

As to `Cn1cc(-c2ccc3ncc(N(CC4CC4)c4cccc(OC(F)F)c4)nc3c2)cn1` [Compound 209], the melting point turned out to be 166.2 °C. The figure for `COc1cc(OC)cc(N(CC2CC2)c2ccc3ncc(-c4cnn(CC(=O)N(C)C)c4)nc3c2)c1` [Compound 212] is 145.81 °C; for `COc1cc(C)cc(N(CC2CC2)c2ccc3ncc(-c4cnn(C)c4)nc3c2)c1` [Compound 228] it is 132 °C; for `COc1cc(OC)cc(N(CC2CC2)c2ccc3ncc(-c4cnn(CCCNCCS(C)(=O)=O)c4)nc3c2)c1` [Compound 231] it is 106.81 °C. Turning to `COc1cc(OC)cc(N(CCO)c2ccc3ncc(-c4cnn(CCCN)c4)nc3c2)c1` [Compound 238], the melting point came out at 133.66 °C. As for `COc1cc(OC)cc(N(CCCC#N)c2ccc3ncc(-c4cnn(C)c4)nc3c2)c1` [Compound 242], the figure is 196.25 °C; as for `COc1cc(OC)cc(N(CCNS(C)(=O)=O)c2ccc3ncc(-c4cnn(C)c4)nc3c2)c1` [Compound 262], 130.64 °C; as for `COc1cc(OC)cc(N(Cc2csc(C)n2)c2ccc3ncc(-c4cnn(C)c4)nc3c2)c1` [Compound 263], 168.45 °C. As for `COc1cc(OC(C)C)cc(N(CC2CC2)c2ccc3ncc(-c4cnn(C)c4)nc3c2)c1` [Compound 269], the figure is 155.79 °C. On to `COc1cc(OC)cc(N(CC2CC2)c2ccc3ncc(-c4cnn(CCNS(C)(=O)=O)c4)nc3c2)c1` [Compound 271], for which the melting point was 181.91 °C.

`COc1cc(OC)cc(N(CCCN2CCCC2)c2ccc3ncc(-c4cnn(CCS(C)(=O)=O)c4)nc3c2)c1` [Compound 295] showed a melting point of 155.31 °C. Compound `COc1cc(OC)cc(N(CCN2CCOCC2)c2ccc3ncc(-c4cnn(C)c4)nc3c2)c1` [Compound 299] showed a melting point of 201 °C. As for `CNC(=O)c1cc(OC)cc(N(CC2CC2)c2ccc3ncc(-c4cn[nH]c4)nc3c2)c1` [Compound 311], the figure is 262.42 °C; as for `CNC(=O)Cn1cc(-c2cnc3ccc(N(CCCO)c4cc(OC)cc(OC)c4)cc3n2)cn1` [Compound 313], 176 °C and 176.49 °C; as for `COc1cc(F)cc(N(CCO)c2ccc3ncc(-c4cnn(CCO)c4)nc3c2)c1` [Compound 315], 139 °C.

As to `COc1cc(OC)cc(N(CCCNS(=O)(=O)N(C)C)c2ccc3ncc(-c4cnn(C)c4)nc3c2)c1` [Compound 316], the melting point came out at 158.73 °C. Take `COc1cc(OC)cc(N(Cc2ccc(Cl)s2)c2ccc3ncc(-c4cn[nH]c4)nc3c2)c1` [Compound 323]: the melting point stood at 166.37 °C. `CCS(=O)(=O)NCCN(c1cc(OC)cc(OC)c1)c1ccc2ncc(-c3cnn(C)c3)nc2c1` [Compound 335] showed a melting point of 122.79 °C. In turn, `COc1cc(OC)cc(N(CCCN)c2ccc3ncc(-c4cn[nH]c4)nc3c2)c1` [Compound 338] showed a melting point of 198.91 °C. The figure for `COc1cc(OC)cc(N(Cc2ccc(Cl)s2)c2ccc3ncc(-c4cnn(CCO)c4)nc3c2)c1` [Compound 340] is 184.2 °C.

Compound `CCOC(=O)C1CCN(CCN(c2cc(OC)cc(OC)c2)c2ccc3ncc(-c4cnn(C)c4)nc3c2)CC1` [Compound 343] yielded a melting point of 80 °C. As for `COc1cc(OC)cc(N(CC2CCOCC2)c2ccc3ncc(-c4cnn(C)c4)nc3c2)c1` [Compound 356], the figure is 154.94 °C. As to `COc1cc(OC)cc(N(CC(O)CN2CCC(F)(F)C2)c2ccc3ncc(-c4cnn(C)c4)nc3c2)c1` (stereo not shown) [Compound 374], the melting point came out at 206.48 °C.

The compound `COc1cc(OC)cc(N(CCCN2CC(F)(F)C2)c2ccc3ncc(-c4cnn(C)c4)nc3c2)c1` [Compound 377] returned a melting point of 112.31 °C.
